One data set concerns the target T1, human EGF-R (Homo sapiens, UniProt P00533).
T1 construct: expressed in transfected cells; host or cells: F/L-HERc cells (murine IL-3-dependent FDC-P1 cells transduced with retroviral vector LXSN carrying human EGF-R cDNA; packaging line GP+E86)
The experiment in a line: Inhibition of EGF-dependent proliferation of F/L-HERc cells (Cell Titer 96 Aqueous Non-Radioactive Cell Proliferation Assay). As to conditions: F/L-HERc cells (murine IL-3-dependent line expressing human EGF-R), stimulated with EGF 20 ng/ml, 48 hours at 37° C., relative cell number as % of control. Type of data set: cell-based. The text has this: The biological properties of the new compounds were investigated as follows. […] A cell line of murine origin dependent on interleukin-3-(IL-3) which was genetically modified to express functional human EGF-R was used here. The proliferation of these cells known as F/L-HERc can therefore be stimulated either by murine IL-3 or by EGF (cf. T. von Rüden et al. in EMBO J. 7, 2749-2756 (1988) and J. H. Pierce et al. in Science 239, 628-631 (1988)). The starting material used for the F/L-HERc cells was the cell line FDC-P1, the production of which has been described by T. M. Dexter et al. in J. Exp. Med. 152, 1036-1047 (1980). Alternatively, however, other growth-factor-dependent cells may also be used (cf. for example, J. H. Pierce et al. in Science 239, 628-631 (1988); H. Shibuya et al. in Cell 70, 57-67 (1992) and W. S. Alexander in EMBO J. 10, 3683-3691 (1991)). For expressing the human EGF-R cDNA (cf. A. Ullrich et al. in Nature 309, 418-425 (1984)) recombinant retroviruses were used as described by T. von Rüden et al., EMBO J. 7, 2749-2756 (1988), except that the retroviral vector LXSN (cf. A. D. Miller et al. in BioTechniques 7, 980-990 (1989)) was used for the expression of the EGF-R cDNA and the line GP+E86 (cf. D. Markowitz et al. in J. Virol. 62, 1120-1124 (1988)) was used as the packaging cell.
The test was performed as follows. F/L-HERc cells were cultivated in RPMI/1640 medium (BioWhittaker), supplemented with 10% fetal calf serum (FCS, Boehringer Mannheim), 2 mM glutamine (BioWhittaker), standard antibiotics and 20 ng/ml of human EGF (Promega), at 37° C. and 5% CO2—In order to investigate the inhibitory activity of the compounds according to the invention, 1.5×10^4 cells per well were cultivated in triplicate in 96-well dishes in the above medium (200 μl), the cell proliferation being stimulated with either EGF (20 ng/ml) or murine IL-3. The IL-3 used was obtained from culture supernatants of the cell line X63/0 mL-3 (cf. H. Karasuyama et al. in Eur. J. Immunol. 18, 97-104 (1988)). The compounds according to the invention were dissolved in 100% dimethylsulfoxide (DMSO) and added to the cultures in various dilutions, the maximum DMSO concentration being 1%. The cultures were incubated for 48 hours at 37° C.
In order to determine the inhibitory activity of the compounds according to the invention the relative cell number was measured in O.D. units using the Cell Titer 96™ Aqueous Non-Radioactive Cell Proliferation Assay (Promega). The relative cell number was calculated as a percentage of the control (F/LHERc cells without inhibitor) and the concentration of active substance which inhibits the proliferation of the cells by 50% (IC50) was derived therefrom.

The source of these data is patent US20090203683A1, “BICYCLIC HETEROCYCLES, PHARMACEUTICAL COMPOSITIONS CONTAINING THEM, THEIR USE, AND PROCESSES FOR PREPARING THEM” (BOEHRINGER INGELHEIM PHARMA GMBH & CO. KG, priority 2000, published 2009).

A word on the IC50: it is the concentration that inhibits the measured activity by half. The term melting point denotes the temperature, or range, at which the solid turns liquid.

T1 sequence (P00533 25-1210): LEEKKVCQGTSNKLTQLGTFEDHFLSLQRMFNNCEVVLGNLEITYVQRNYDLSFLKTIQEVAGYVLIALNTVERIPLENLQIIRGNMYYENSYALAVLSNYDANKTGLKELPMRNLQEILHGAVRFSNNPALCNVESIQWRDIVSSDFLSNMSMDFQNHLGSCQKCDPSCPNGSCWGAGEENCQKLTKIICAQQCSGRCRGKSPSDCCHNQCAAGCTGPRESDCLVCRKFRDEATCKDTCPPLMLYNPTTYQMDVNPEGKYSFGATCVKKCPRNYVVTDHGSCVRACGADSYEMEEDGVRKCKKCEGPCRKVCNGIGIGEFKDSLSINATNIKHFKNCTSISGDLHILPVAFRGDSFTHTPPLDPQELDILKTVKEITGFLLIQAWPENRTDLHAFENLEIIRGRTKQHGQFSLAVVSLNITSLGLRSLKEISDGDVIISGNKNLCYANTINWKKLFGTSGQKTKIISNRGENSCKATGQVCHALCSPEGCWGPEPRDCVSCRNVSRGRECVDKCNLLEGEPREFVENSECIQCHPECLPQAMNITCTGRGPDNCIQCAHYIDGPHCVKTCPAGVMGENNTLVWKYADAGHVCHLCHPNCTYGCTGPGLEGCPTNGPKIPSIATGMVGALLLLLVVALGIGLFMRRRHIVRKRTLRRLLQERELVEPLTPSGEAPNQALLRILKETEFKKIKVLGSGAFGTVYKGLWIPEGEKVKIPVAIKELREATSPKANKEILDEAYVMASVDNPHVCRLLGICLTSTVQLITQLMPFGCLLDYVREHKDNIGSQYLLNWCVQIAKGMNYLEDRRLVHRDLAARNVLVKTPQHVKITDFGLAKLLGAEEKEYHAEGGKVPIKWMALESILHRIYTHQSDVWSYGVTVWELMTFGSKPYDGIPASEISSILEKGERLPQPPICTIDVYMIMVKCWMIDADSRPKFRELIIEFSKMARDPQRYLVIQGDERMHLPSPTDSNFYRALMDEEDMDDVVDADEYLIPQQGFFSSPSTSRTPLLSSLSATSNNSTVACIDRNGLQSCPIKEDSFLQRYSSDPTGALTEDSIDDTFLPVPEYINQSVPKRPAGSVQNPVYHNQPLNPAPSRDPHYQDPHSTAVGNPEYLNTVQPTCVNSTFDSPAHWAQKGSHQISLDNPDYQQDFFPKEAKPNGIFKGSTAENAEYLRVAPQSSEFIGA

Take `CCOC(=O)CN(C)CCCOc1cc2c(Nc3ccc(F)c(Cl)c3)ncnc2cc1OC` [Example 2, 4-(3-chloro-4-fluorophenylamino)-6-{3-[N-(ethoxycarbonylmethyl)-N-methylamino]propyloxy}-7-methoxyquinazoline]: on human EGF-R, the IC50 was found to be 230 nM.
Turning to `COC(=O)CC(CC(=O)OC)N1CCN(CCOc2cc3c(Nc4cccc(Br)c4)ncnc3cc2OC)CC1` [3(4), 4-[(3-bromophenyl)amino]-6-[2-(4-{1-[(methoxycarbonyl)methyl]-2-(methoxycarbonyl)ethyl}piperazin-1-yl)ethoxy]-7-methoxyquinazoline], on human EGF-R, the IC50 was determined as 77 nM.
In the case of `CCOC(=O)CN(C)CCOc1cc2c(Nc3cccc(Br)c3)ncnc2cc1OC` [3(1), 4-[(3-bromophenyl)amino]-6-(2-{N-[(ethoxycarbonyl)methyl]-N-methylamino}ethoxy)-7-methoxyquinazoline], the concentration for half-maximal inhibition (IC50) on human EGF-R was determined as 100 nM.
In the case of `CCOC(=O)CN(CCOc1cc2c(Nc3cccc(Br)c3)ncnc2cc1OC)CC(=O)OCC` [3(2), 4-[(3-bromophenyl)amino]-6-(2-{N,N-bis[(ethoxycarbonyl)methyl]amino}ethoxy)-7-methoxyquinazoline], on human EGF-R, the IC50 came out at 70 nM.
For the molecule `CCOC(=O)CN1CCN(CCOc2cc3c(Nc4cccc(Br)c4)ncnc3cc2OC)CC1` [Example 3, 4-[(3-bromophenyl)amino]-6-(2-{4-[(ethoxycarbonyl)methyl]piperazin-1-yl}ethoxy)-7-methoxyquinazoline], the melting point is 155 °C. Further, on human EGF-R, the IC50 stood at 45 nM.
On to `COC(=O)[C@@H]1CCCN1CCCOc1cc2c(Nc3cccc(Br)c3)ncnc2cc1OC` [2(1), (s)-4-[(3-bromophenyl)amino]-6-[3-(2-methoxycarbonylpyrrolidin-1-yl)propyloxy]-7-methoxyquinazoline], for which the IC50 at human EGF-R was 39 nM.
With `CCOC(=O)CN1CCC[C@H]1COc1cc2c(Nc3cccc(Br)c3)ncnc2cc1OC` [1(2), (s)-4-[(3-bromophenyl)amino]-6-({1-[(ethoxycarbonyl)methyl]pyrrolidin-2-yl}methoxy)-7-methoxyquinazoline], the IC50 on human EGF-R came out at 20 nM.
Molecule `CCOC(=O)CN1CCN(CC(O)COc2cc3c(Nc4cccc(Br)c4)ncnc3cc2OC)CC1` (centres unmarked) [Example 4, 4-[(3-bromophenyl)amino]-6-(3-{4-[(ethoxycarbonyl)methyl]piperazin-1-yl}-2-hydroxypropyloxy)-7-methoxyquinazoline] gave a melting point of 118 to 122 °C. Moreover, the IC50 at human EGF-R was 33 nM.
As to `COC(=O)CN1CCN(CCCOc2cc3c(Nc4ccc(F)c(Cl)c4)ncnc3cc2OC)CC1` [Example 1, 4-(3-chloro-4-fluorophenylamino)-6-{3-[4-(methoxycarbonylmethyl)-1-piperazinyl]propyloxy}-7-methoxyquinazoline], the IC50 on human EGF-R stood at 46 nM.
